# Laboratory results published in US20100029613A1, “TREATMENT AND PREVENTION OF EPILEPSY” (University of Rochester, priority 2004, published 2010).
# Values joined by “and” are separate entries in the source; they are usually repeats but may differ in a detail not shown here. Identical values can stand only once. Like-named read-outs stand apart in the source and are kept apart here.
# Tests used:
# cultured astrocytes [1] = assay: Astrocyte cell volume, confocal x-z line scans of calcein-loaded cultures; format: cell-based, rat
# [2] = test system: cultured rat cortical astrocytes; assay: ATP-induced glutamate release, enzymatic fluorescence assay; format: cell-based; details: for glutamate release triggered by ATP agonists: 100 μM
# [3] = test system: astrocytic Ca^2+ signaling in hippocampal slices; format: cell-based, rat
# cultured astrocytes [4] = assay: Ca^2+ imaging in cultured astrocytes; format: cell-based, rat; details: absence of co-cultured neurons
# hippocampus of adult rat = details: in vivo
# [5] = test system: PDSs in hippocampal slices evoked by 4-AP; assay: 4-AP-evoked PDSs, field potential recording in hippocampal slices; format: cell-based, rat; details: for frequency and amplitude of PDSs: bath applied to slices with 4-AP induced seizures, NPPB 100 μM, FFA 100 μM
# cultured astrocytes [6] = format: cell-based, rat
# astrocytes in suspension = format: cell-based, rat
# [7] = test system: cultured astrocytes from Cx43 KO mice; format: cell-based
# cultured astrocytes [8] = assay: HPLC analysis of amino acid release from perfused astrocyte cultures; format: cell-based, rat
# [9] = test system: glutamate-permeable channel in cultured astrocytes; assay: Whole-cell recording of ATP-induced current in cultured astrocytes; format: cell-based, rat; details: for effect on ATP-induced current: NaCl outside, BAPTA 10 mM in pipette, NPPB 100 μM, FFA 100 μM, gossypol 10 μM, OxATP 300 μM 1 h
# [10] = test system: astrocytes in hippocampal slices; format: cell-based, rat
# [11] = test system: glutamate-permeable channel in astrocytes in hippocampal slices; assay: Whole-cell recording of ATP-induced inward current in astrocytes in hippocampal slices; format: cell-based, rat; details: for effect on ATP-induced inward current: 10 mM intracellular BAPTA, 100 μM NPPB in bath
# [12] = test system: cultured rat cortical astrocytes; assay: Hypotonicity (swelling)-induced glutamate release, enzymatic fluorescence assay; format: cell-based
# [13] = test system: PDSs in hippocampal slices; assay: PDSs across all experimental seizure models (4-AP, Mg^2+-free, bicuculline, penicillin, Ca^2+-free); format: cell-based, rat
# [14] = test system: interneurons in hippocampal slices; format: cell-based, rat
# [15] = test system: 4-AP induced astrocytic Ca^2+ signaling in cortex; assay: In vivo two-photon imaging of 4-AP induced astrocytic Ca^2+ signaling; set-up: species or system mice
# [16] = test system: ATP-induced Ca^2+ waves in cortical astrocytes; assay: In vivo two-photon imaging of ATP-induced astrocytic Ca^2+ waves; set-up: species or system mice
# [17] = 214 mOsM, same concentrations as for ATP-induced release
# [18] = NPPB 100 μM, FFA 100 μM, gossypol 10 μM
# [19] = valproate 450 mg/kg, gabapentin 200 mg/kg, phenyloin 100 mg/kg i.p., 5-30 min after 4-AP
# [20] = valproate 450 mg/kg, gabapentin 200 mg/kg, phenyloin 100 mg/kg i.p., iontophoretic ATP, non-epileptic mice
molecule,measurement,setting,value
"2′,3′-O-(4-benzoylbenzoyl)-ATP [Bz-ATP]",increase in vertical sectional areas (cell swelling),"cultured astrocytes [1]; 100 μM agonist, 1 min",1.35±1.05%
same,glutamate release triggered by ATP agonists,[2],without effect
"Nc1ccncc1 [4-AP, 4-aminopyridine]",astrocytic Ca^2+ signaling (Ca^2+ oscillations),[3],potently initiated astrocytic Ca^2+ signaling
same,Ca^2+ signaling in cultured astrocytes,cultured astrocytes [4],promptly induced Ca^2+ signaling
same,extracellular concentration of glutamate,hippocampus of adult rat,6 to 10 µM
same,"increase in release of amino acid osmolytes (glutamate, aspartate, glutamine, taurine)",hippocampus of adult rat,3-8 fold
"C[C@@](N)(C(=O)O)c1ccc(C(=O)O)cc1 [(S)-MCPG, (S)-Alpha-methyl-4-carboxy-phenylglycine]",frequency and amplitude of PDSs compared with TTX alone,[5],failed to reduce
"NC(CCCP(=O)(O)O)C(=O)O (stereo not shown) [APV, 2-amino-5-phosphonovalerate]",frequency and amplitude of PDSs compared with TTX alone,[5],highly significant reduction
Nc1ncnc2c1ncn2[C@@H]1O[C@H](COP(=O)(O)OP(=O)(O)OP(=O)(O)O)[C@@H](O)[C@H]1O [ATP],increase in vertical sectional areas (cell swelling),cultured astrocytes [1],5.19±0.66%
same,volume increase,cultured astrocytes [1],5.2%
same,decrease in fluorescence-dilution emission,cultured astrocytes [6],9.6±1.3%
same,increase in astrocytic cell volume,astrocytes in suspension,3.5±0.6% and 3.0±0.5%
same,glutamate release,[2],2.49±0.21 fmol glutamate per cell
same,glutamate release,[7],3.02 fmol per cell
same,glutamate release relative to astrocytes from wild-type littermates,[7],90.7%
same,increase in glutamate release,cultured astrocytes [8],2- to 5 fold
same,"ATP-triggered inward current, amplitude",[9],250±33 pA
same,"ATP-triggered inward current, average amplitude",[9],177±37 pA and 138±36 pA
same,duration of the fluo-4 signal increase,[10],8.7 ± 1.4 s
same,increase in the fluo-4 signal over baseline,[10],131±13%
same,ATP-induced inward current,[11],254±31 pA
"O=C(O)CN(CC(=O)O)c1ccccc1OCCOc1ccccc1N(CC(=O)O)CC(=O)O [BAPTA, 1,2-bis (2-aminophenoxy) Ethane-N,N,N′,N′-tetraacetic acid]",effect on glutamate release evoked by hypoosmotic challenge,[12]; [17],failed to affect
same,effect on ATP-induced current,[9],blocked
same,effect on ATP-induced inward current,[11],attenuated
"CC(=O)OCOC(=O)CN(CC(=O)OCOC(C)=O)c1ccccc1OCCOc1ccccc1N(CC(=O)OCOC(C)=O)CC(=O)OCOC(C)=O [BAPTA/AM, 1,2-bis(2-aminophenoxy)ethane-N,N,N′,N′-tetraacetate (BAPTA)/AM]",ATP-induced increase in vertical sectional areas attenuated to,"cultured astrocytes [1]; ATP 100 μM, BAPTA/AM 20 μM preloaded",1.63±0.73%
same,effect on ATP-induced glutamate release,[2],attenuated the release
same,"effect on glutamate, aspartate, glutamine and taurine release evoked by ATP",cultured astrocytes [8],inhibited
"CCOc1ccc(Nc2ccc(/C(=C3C=C/C(=[N+](/CC)Cc4cccc(S(=O)(=O)[O-])c4)C=C/3C)c3ccc(N(CC)Cc4cccc(S(=O)(=O)[O-])c4)cc3C)cc2)cc1.[Na+] [BBG, Brilliant Blue G]",ATP-induced glutamate release,[2]; BBG 1 μM,106.4±19.1 % of control
same,amplitude of the ATP-induced inward current,"[11]; BBG 1 μM, P=0.8",106.8±22.0%
"N#Cc1cc2c(cc1[N+](=O)[O-])=NC(=O)C(=O)N=2 [CNQX, 6-cyano-7-nitroquinoxaline-2,3-dione]",frequency and amplitude of PDSs compared with TTX alone,[5],significant decrease
"O=C(O)c1ccccc1Nc1cccc(C(F)(F)F)c1 [FFA, flufenamic acid]",frequency and amplitude of PDSs,[5],markedly reduced
same,glutamate release in presence of anion channel blocker,[2]; [18],0.00±0.00 fmol per cell
same,effect on glutamate release evoked by hypoosmotic challenge,[12]; [17],decreased
same,effect on ATP-induced current,[9],inhibited ATP-induced current
COc1ccc2c(c1)c(CC(=O)O)c(C)n2C(=O)c1ccc(Cl)cc1 [Indomethacin],effect on ATP-induced glutamate release,[2],did not reduce
"O=C(O)c1cc([N+](=O)[O-])ccc1NCCCc1ccccc1 [NPPB, 5-nitro-2-(3-phenylpropylamino) benzoic acid]",frequency and amplitude of PDSs,[5],markedly reduced
same,glutamate release in presence of anion channel blocker,[2]; [18],0.22±0.14 fmol per cell
same,reduction of glutamate release,"[2]; after exposure to 10 μM ATP, NPPB 100 μM",72.6±3.9%
same,effect on glutamate release evoked by hypoosmotic challenge,[12]; [17],decreased
same,"effect on glutamate, aspartate, glutamine and taurine release evoked by ATP",cultured astrocytes [8],inhibited
same,effect on ATP-induced current,[9],inhibited ATP-induced current
same,effect on ATP-induced inward current,[11],attenuated
"Nc1ncnc2c1ncn2[C@@H](C=O)O[C@@H](C=O)COP(=O)(O)OP(=O)(O)OP(=O)(O)O [OxATP, oxidized ATP]",effect on ATP-induced glutamate release,[2],did not significantly reduce
same,effect on ATP-induced current,[9],no significant effect
Nc1c(S(=O)(=O)O)cc(Nc2ccc(Nc3nc(Cl)nc(Nc4cccc(S(=O)(=O)O)c4)n3)c(S(=O)(=O)O)c2)c2c1C(=O)c1ccccc1C2=O [Reactive Blue 2],effect on ATP-induced glutamate release,[2],blocked the release
"N[C@H](C(=O)O)[C@H](OCc1ccccc1)C(=O)O [TBOA, D,L-threo-beta-benzyloxyaspartate]",frequency and amplitude of PDSs compared with TTX alone,[5],increased the frequency and amplitude of PDSs significantly
same,effect on ATP-induced glutamate release,[2],without effect
same,effect on glutamate release evoked by hypoosmotic challenge,[12]; [17],without effect
"NC1=N[C@H](O)[C@H]2[C@H]3O[C@]4(O)O[C@@H]([C@@H](O)[C@@]2(N1)[C@@H]4O)[C@]3(O)CO [TTX, tetrodotoxin]",decrease of relative frequency of PDSs compared with 4-AP alone,[5],32±8%
same,frequency and amplitude of 4-AP induced PDSs,[5],only slightly decreased
same,frequency and amplitude of PDSs reduced by,[5],20-35%
same,frequency of PDSs reduced to,[13],70-90 % of total
same,frequency or amplitude of astrocytic Ca^2+ oscillations,[3],did not reduce
O=c1ccn([C@@H]2O[C@H](COP(=O)(O)OP(=O)(O)OP(=O)(O)O)[C@@H](O)[C@H]2O)c(=O)[nH]1 [UTP],increase in vertical sectional areas (cell swelling),cultured astrocytes [1],5.75±0.57%
same,glutamate release triggered by ATP agonists,[2],roughly equivalent to that of ATP
CO/C1=C\C(C)=C\[C@@H](C)[C@@H](O)[C@@H](C)C/C(C)=C/C=C/[C@H](OC)[C@@H]([C@@H](C)[C@@H](O)[C@H](C)[C@@]2(O)C[C@@H](O)[C@H](C)[C@@H](C(C)C)O2)OC1=O [bafilomycin A1],effect on ATP-induced glutamate release,[2],no effect
same,effect on glutamate release evoked by hypoosmotic challenge,[12],no effect
same,frequency of inhibitory postsynaptic currents,[14],0.2 per sec
NCC1(CC(=O)O)CCCCC1 [gabapentin],4-AP-induced Ca^2+ signaling reduced by,"[15]; mouse, in vivo",55.6%
same,ATP-evoked astrocytic Ca^2+ signaling (Ca^2+ waves) depressed by,"[16]; mouse, in vivo",53.8%
Cc1cc2c(C(C)C)c(O)c(O)c(C=O)c2c(O)c1-c1c(C)cc2c(C(C)C)c(O)c(O)c(C=O)c2c1O [gossypol],glutamate release in presence of anion channel blocker,[2],0.07±0.07 fmol per cell
O=C1NC(=O)C(c2ccccc2)(c2ccccc2)N1 [phenyloin],4-AP-induced Ca^2+ signaling reduced by,[15]; [19],45.5%
same,ATP-evoked astrocytic Ca^2+ signaling (Ca^2+ waves) depressed by,[16]; [20],23.8%
C/C=C(/C)C(=O)O[C@H]1C(C)=C2[C@H]([C@@H]1OC(=O)CCCCCCC)[C@@](C)(OC(C)=O)C[C@H](OC(=O)CCC)[C@@]1(O)[C@H]2OC(=O)[C@@]1(C)O [thapsigargin],effect on ATP-induced glutamate release,[2],attenuated the release
same,effect on glutamate release evoked by hypoosmotic challenge,[12]; [17],failed to affect
CCCC(CCC)C(=O)O [valproate],4-AP-induced Ca^2+ signaling reduced by,[15]; [19],69.7%
same,ATP-evoked astrocytic Ca^2+ signaling (Ca^2+ waves) depressed by,[16]; [20],64.9%
Nc1ncnc2c1ncn2[C@@H]1O[C@H](COP(=O)(O)CP(=O)(O)OP(=O)(O)O)[C@@H](O)[C@H]1O [αβ-meATP],glutamate release triggered by ATP agonists,[2],without effect
methionine sulfoximine [MSO],effect on ATP-induced glutamate release,[2],increased glutamate release
same,effect on glutamate release evoked by hypoosmotic challenge,[12],increased glutamate release
